We go through five compounds from patent US10954214B2 (Janssen Pharmaceutica NV, priority 2016, dated 2021).

pIC50: −log10 of the molar value.

One assay relates to OCI-Ly3 cells. The experiment in a line: 4-day proliferation assay, OCI-Ly3. It is filed as cell-based, human. As to conditions: Homo sapiens, 96 h, 4 days incubation, CellTiterGLO, read-out: Anti-proliferation: OCI-LY-3 IC50. In short, it runs like this:
(§1)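 TMD8 and OCI-Ly3 cells were seeded at 10,000 per well and grown 4 days at 37° C, 5% CO2 without beta-mercaptoethanol. Viability was read by CellTiter-Glo luminescence. IC50 and Hill slope were fitted relative to the low control median.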
(In general: Cellular ATP, detected with luciferase, serves as a proxy for viable cell number.)

Assay [1] has as its system IL6 secretion by TMD8 ABC-DLBCL cells. The experiment in a line: Human IL6 Mesoscale assay (TMD-8). It is filed as cell-based. As to conditions: Homo sapiens, TMD8; TMD-8 cells, 24 h. In short, it runs like this: (§2)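 100,000 cells/well treated with compound in 9 twofold steps from 15 μM to 58.6 nM (0.3% DMSO) for 24 h at 37° C; supernatant cytokine measured by MSD electrochemiluminescence sandwich immunoassay. DMSO wells set maximum signal, BTK inhibitor RN486 (30 nM to 131 pM) set maximum inhibition.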

The next assay concerns TMD8 cells. Description: 4-day proliferation assay, TMD8. It is filed as cell-based. Conditions: Homo sapiens, 96 h, 4 days incubation, CellTiterGLO, read-out: Anti-proliferation: TMD-8 IC50. In short, it runs like this: as §1
The subject of the next assay is Jurkat cells. The experiment in a line: PMA Induced IL2 Production In Jurkat Cells. Conditions: Homo sapiens, PMA/Ionomycin, 20 h, read-out: IL-2 prod h Jurkat PMA IC50. It is filed as cell-based.
Assay [2] concerns the target full-length MALT1 protein (Strep-MALT1(1-824)-His) (Homo sapiens (Human), UniProt Q9UDY8). Description: MALT1 Biochemical Protease Assay (Ac-LRSR-AMC substrate). Conditions: 10 nM FL MALT1, 200 μM Ac-LRSR-AMC, 4 h at RT; read-out: MALT1_Biochemical activity (Ac-LRSR-amc) IC50. In short, it runs like this: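 Full-length MALT1 pre-incubated with compounds (30 μM to 0.5 nM, 11 threefold steps) for 50 min at RT. After Ac-LRSR-AMC was added, the reaction ran 4 h at RT and AMC fluorescence was read. IC50 and Hill slope from curve fitting against no-enzyme and no-compound controls.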

The subject of assay [3] is IL10 secretion by TMD8 ABC-DLBCL cells. The experiment in a line: Human IL10 Mesoscale assay (TMD-8). It is filed as cell-based. Conditions: Homo sapiens, TMD8; TMD-8 cells, 24 h. In short, it runs like this:
as §2

Chain of full-length MALT1 protein (Strep-MALT1(1-824)-His) (Q9UDY8 whole entry): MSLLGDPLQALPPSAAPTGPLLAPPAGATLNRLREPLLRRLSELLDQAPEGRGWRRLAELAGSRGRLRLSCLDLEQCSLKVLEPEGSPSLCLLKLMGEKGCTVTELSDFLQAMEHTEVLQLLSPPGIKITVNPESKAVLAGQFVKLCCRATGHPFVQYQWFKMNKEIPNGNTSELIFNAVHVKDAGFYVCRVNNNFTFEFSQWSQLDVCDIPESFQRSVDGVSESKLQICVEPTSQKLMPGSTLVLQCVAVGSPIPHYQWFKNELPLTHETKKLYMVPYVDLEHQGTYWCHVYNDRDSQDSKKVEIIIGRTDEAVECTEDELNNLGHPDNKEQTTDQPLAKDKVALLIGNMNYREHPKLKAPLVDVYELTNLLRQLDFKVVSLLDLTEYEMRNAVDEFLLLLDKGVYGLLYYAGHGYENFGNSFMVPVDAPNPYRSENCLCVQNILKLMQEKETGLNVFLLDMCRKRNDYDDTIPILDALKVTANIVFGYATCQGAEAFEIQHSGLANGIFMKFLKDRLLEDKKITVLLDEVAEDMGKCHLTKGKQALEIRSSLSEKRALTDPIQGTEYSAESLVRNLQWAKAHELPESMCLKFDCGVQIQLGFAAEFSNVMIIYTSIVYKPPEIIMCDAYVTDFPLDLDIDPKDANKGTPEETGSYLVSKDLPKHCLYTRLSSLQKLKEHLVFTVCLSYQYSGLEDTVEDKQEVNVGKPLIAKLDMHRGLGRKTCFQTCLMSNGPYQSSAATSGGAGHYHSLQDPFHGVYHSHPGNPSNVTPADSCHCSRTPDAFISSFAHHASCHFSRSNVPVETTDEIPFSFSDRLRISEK

On to `Cn1ccc(-c2ncc(NC(=O)c3cnn(-c4cncc5ccccc45)c3C(F)(F)F)cc2Cl)n1` [Cpd 52, N-(5-chloro-6-(1-methyl-1H-pyrazol-3-yl)pyridin-3-yl)-1-(isoquinolin-4-yl)-5-(trifluoromethyl)-1H-pyrazole-4-carboxamide], for which the pIC50 in the assay with OCI-Ly3 cells is 6.68; in assay [1], 7.10; in the assay with TMD8 cells, 5.30; in the assay with Jurkat cells, 6.89; in assay [2], 7.46; in assay [3] it was 7.04.
For the compound `Cc1ncn(-c2ncc(NC(=O)c3cnn(-c4cncc5ccccc45)c3C(F)(F)F)cc2Cl)n1` [Cpd 53, N-(5-Chloro-6-(3-methyl-1H-1,2,4-triazol-1-yl)pyridin-3-yl)-1-(isoquinolin-4-yl)-5-(trifluoromethyl)-1H-pyrazole-4-carboxamide], the pIC50 in the assay on OCI-Ly3 cells is 5.97; in assay [1], 6.70; in the assay with TMD8 cells, about 4.87; with Jurkat cells, 6.42; in assay [2], 7.00; in assay [3] it was 6.62.
With `Cc1ncnn1-c1ncc(NC(=O)c2cnn(-c3cncc4ccccc34)c2C(F)(F)F)cc1Cl` [Cpd 54, N-(5-Chloro-6-(5-methyl-1H-1,2,4-triazol-1-yl)pyridin-3-yl)-1-(isoquinolin-4-yl)-5-(trifluoromethyl)-1H-pyrazole-4-carboxamide], the pIC50 with OCI-Ly3 cells was 6.34; in assay [1], 6.96; in the assay on TMD8 cells, 5.06; with Jurkat cells, 6.43; in assay [2], 6.56; in assay [3], 6.57.
In the case of `Cc1ncn(-c2ccc(NC(=O)c3cnn(-c4cncc5ccccc45)c3C(F)(F)F)cc2Cl)n1` [Cpd 55, N-(3-chloro-4-(3-methyl-1H-1,2,4-triazol-1-yl)phenyl)-1-(isoquinolin-4-yl)-5-(trifluoromethyl)-1H-pyrazole-4-carboxamide], the pIC50 in the assay on OCI-Ly3 cells was 6.27; in assay [1], about 7.03; in the assay on TMD8 cells, 5.28; with Jurkat cells, 6.89; in assay [2], 6.74; in assay [3], 6.71.
Regarding `O=C(Nc1ccc(-n2ccnn2)c(Cl)c1)c1cnn(-c2cncc3ccccc23)c1C(F)(F)F` [compound 43, N-(3-chloro-4-(1H-1,2,3-triazol-1-yl)phenyl)-1-(isoquinolin-4-yl)-5-(trifluoromethyl)-1H-pyrazole-4-carboxamide], the pIC50 in the assay on OCI-Ly3 cells was about 6.59; in assay [1], 6.99; with TMD8 cells, 5.33; in the assay with Jurkat cells, 7.27; in assay [2] it was 7.22; in assay [3], 7.09.
